Patent US5132432A, “Chemically reactive pyrenyloxy sulfonic acid dyes” (Molecular Probes, Inc., priority 1989, dated 1992)
Counter-ions that a name gives are not always drawn. Like-named read-outs stand apart in the source and are kept apart here.

Key:
[1] = Comparison of spectral properties of reactive dyes, Table 1; assay type: physicochemical; details: for Quantum Yield: in aqueous solution, grade in words
Text: A number of dyes have been proposed in the literature that can be excited and detected at wavelengths less than 500 nm. Several chemically reactive fluorophores that can be excited in the near ultraviolet and short wavelength visible region of the spectrum have been described. […] These proposed tracers are derived from naphthalene derivatives such as 5-dimethylaminonaphthalene-1-sulfonic acid (Dansyl) [Weber, Biochem. J. 41:145 (1952); Rinderknecht, Experientin 16:430 (1960)], 3-(isothiocyanato)naphthalene-1,5-disulfonic acid [Braunitzer, et al., Hoppe-Seyler's Z. Physiol. […] Chem. 358:505 (1977)], pyrene derivatives such as pyrene-1-butyric acid (PBA) [Malencik & Anderson, Biochemistry 11:3022 (1972)], 8-isothiocyanatopyrene-1,3,6-trisulfonic acid (IPTS) [Braunitzer,et al., Hoppe-Seyler's Z. Physiol. Chem. 354:1536 (1973)] and 8-hydroxypyrene-1,3,6-trisulfonyl chloride [Wolfbeis, Fresenies Z. Anal. Chem. 320:271 (1985)], stilbene derivatives such as 4-acetamido-4'-isothiocyanatostilbene-2,2'-disulfonic acid (SITS) [Cornelisse & Ploem, J. Histochem. Cytochem. 24:72 (1976)], and coumarin dyes such as 3-carboxy-7-hydroxycoumarin [Baker & Collis, J. Chem. Soc. 1949, S 12 (1949)], 7-hydroxy-4-methylumbelliferone-3-acetic acid (4-MUA) [Khalfan, et al., Biochem. J. 209:265 (1983)], 7-amino-4-methylcoumarin-3-acetic acid (AMCA) [Khalfan, et al., Histochem. J. 18:497 (1986)] and 7-diethylaminocoumarin [Staines, et al. (1988)].

[2] = test system: microsomal glucose-6-phosphatase; details: cited from earlier work
[3] = test system: anion transport systems in red blood cells; details: cited from earlier work
[4] = background statement; cited from earlier work
[5] = Solubility in water / aqueous solution; details: solubility of the reactive form of the dye; grade in words
[6] = Spectral properties (absorption/emission) of new pyrenyloxy sulfonic acid dyes, Table 4; assay type: physicochemical; details: 50 mM aqueous potassium phosphate buffer at pH 8.0
Method: Stock solutions were prepared by accurately weighing and dissolving 5-10 mg samples of the compounds in 2.000 ml water. A 10 μl aliquot of the stock solution was diluted into 2.00 ml of 50 mM potassium phosphate buffer at pH 8.0. Absorbance solutions were prepared by further diluting 200 μl of the diluted stock solution to 2.000 ml with 50 mM potassium phosphate buffer at pH 8.0. Absorption data was collected on an IBM Model 9420 UV/Visible Spectrophotometer and extinction coefficients were determined by standard Beer's Law calculations.
Uncorrected fluorescence data was obtained on a Perkin-Elmer Model 650-40 Fluorescence Spectrophotometer equipped with a Perkin-Elmer/Hitachi 057 X-Y Recorder using a ten- to twentyfold dilution of the absorbance solutions. Fluorescence of the pyrenyloxy sulfonic acid dyes was determined for the reactive dyes and for their conjugates with model compounds by dissolving the dye at a concentration above 1×10^-8M in an appropriate solvent such as water, methanol, ethanol, or dimethylsulfoxide and measurement of the fluorescence in a suitable instrument, such as a fluorescence spectrometer or fluorescence microscope or flow cytometer. Fluorescence could also be observed for the dyes in solution by visual inspection with illumination by a suitable source that emits light at wavelengths of less than 420 nm.

[7] = Quantum yield relative to quinine sulfate; assay type: physicochemical; details: in 50 mM phosphate buffer at pH 8.0
Text: An estimate of the quantum yield of the dyes relative to quinine sulfate (quantum yield=0.55 in 1N sulfuric acid) was obtained by integrating the emission spectrum of the dye excited at the same wavelength and optical density as the standard.

[8] = Emission spectra comparison of equimolar solutions / normalized spectra (FIG. 2, FIG. 3); assay type: physicochemical
Text: The narrower spectral width makes the dyes particularly valuable for applications requiring multiple dyes such as flow cytometry, DNA sequencing [Smith, et at. (1985)] and multiparameter microscopy. The utility of the objects of this invention in multiparameter applications is illustrated in FIG. 3. […] The extinction coefficients for the pyrenyloxy sulfonic acid dyes are generally greater than 25,000 cm^-1 M^-1 and the quantum yields of the dyes in aqueous solution are generally above 0.5. In FIG. 4, the emission intensities of bovine serum albumin (BSA) conjugates of the pyrene isothiocyanate IPTS are compared to the BSA conjugates of compound 9. […] The subject dyes show only minor spectral shifts and intensity changes between water, methanol, and ethanol and have absorption and emission spectra that lack significant pH dependence between pH 6 and 10, as illustrated in FIG. 5. Table 4 lists the approximate spectral properties of a number of the dyes and intermediates that are the subject of this invention.

[9] = in 1N sulfuric acid; cited from earlier work
[10] = test system: Swiss-Webster mice; details: mouse, in vivo; cited from earlier work
[11] = full bandwidth at half peak height

CC(=O)Nc1ccc(/C=C/c2ccc(N=C=S)cc2S(=O)(=O)O)c(S(=O)(=O)O)c1 [SITS, 4-acetamido-4'-isothiocyanatostilbene-2,2'-disulfonic acid]
% Emission at 514 nm [1]: 19 | Abs Max [1]: 337 | Em. Max. [1]: 438 | Emission Bandwidth [1]: 82 | Emission Bandwidth [cm^-1] [1]: 4825 | ε [1]: 37400 M⁻¹ cm⁻¹ | Quantum Yield [1]: low | effect on microsomal glucose-6-phosphatase [2]: inhibitory effect | effect on anion transport systems in red blood cells [3]: inhibitory effect | aqueous solubility / lipophilicity [4]: high water solubility | Water Solubility [5]: high

NNC(=O)COc1cc(S(=O)(=O)[O-])c2ccc3c(S(=O)(=O)[O-])cc(S(=O)(=O)[O-])c4ccc1c2c43.[Na+].[Na+].[Na+] [Compound 12, 1,3,6-Trisulfo-8-pyrenyloxyacethydrazide, trisodium salt]
Emission Band-width [6]: 50 nm | Emission at 514 nm [6]: 3.9 % of max | Abs Max ([6]; first (longer-wavelength) maximum): 399 nm | Abs Max ([6]; second (shorter-wavelength) maximum): 377 nm | ε ([1]; at first maximum): 28000 M⁻¹ cm⁻¹ | ε ([1]; at second maximum): 23300 M⁻¹ cm⁻¹ | Abs Max ([1]; first maximum): 399 nm | Emission Bandwidth [1, 11]: 50 nm | Emission Bandwidth [cm^-1] [1, 11]: 2168 cm⁻¹ | Quantum Yield [1]: high | % Emission at 514 nm ([1]; percent of maximum emission at 514 nm): 3.8 % of max | Abs Max ([1]; second maximum): 376 nm | Quantum Yield [7]: 0.54 | resolution of emission from fluorescein and Lucifer Yellow CH [8]: emission which is well resolved from the emission bands of both these widely used dyes | Water Solubility [5]: high

C=C[C@H]1C[N@@]2CC[C@H]1C[C@H]2[C@H](O)c1ccnc2ccc(OC)cc12 [quinine sulfate]
quantum yield of standard [9]: 0.55

O=S(=O)(O)c1cc(O)c2ccc3c(S(=O)(=O)O)cc(S(=O)(=O)O)c4ccc1c2c34 [8-hydroxypyrene-1,3,6-trisulfonic acid]
LD50 [10]: exceeding 1000 mg/kg

O=S(=O)([O-])c1cc(O)c2ccc3c(S(=O)(=O)[O-])cc(S(=O)(=O)[O-])c4ccc1c2c34.[Na+].[Na+].[Na+] [8-hydroxypyrene-1,3,6-trisulfonic acid, trisodium salt]
toxicity to Swiss-Webster mice [10]: nontoxic to Swiss-Webster mice
